Results taken from patent publication US7238708B2, “Glucose sensor” (The Regents of the University of California, priority 2004, dated 2007).
Values joined by “and” are separate entries in the source; they are usually repeats but may differ in a detail not shown here. Equal values may be shown once. Read-outs that look alike come from different tables or passages of the source. One block for each molecule: values may come before it.

How the values were obtained:
hSGLT3 [1] = target: T1, hSGLT3 (Homo sapiens, UniProt Q9NY91); assay: two-electrode voltage-clamp, membrane potential of hSGLT3-expressing Xenopus oocytes; format: cell-based; conditions: for membrane depolarization: 5 mM sugar, Na+ buffer pH 7.5, single oocyte; for effect on the membrane potential: concentrations as high as 100 mM; for effect on the membrane potential (qualitative): exposure of hSGLT3 oocytes to sugar; for inhibition of glucose-induced membrane depolarization: 250 μM phlorizin
T1 construct: The complete hSGLT3 clone was created by ligation of this PCR product to the 3′-end of hSGLT3 at the HindIII site; expressed in transfected cells; host or cells: Xenopus laevis oocytes injected with hSGLT3 cRNA
T1 sequence (Q9NY91 1-659): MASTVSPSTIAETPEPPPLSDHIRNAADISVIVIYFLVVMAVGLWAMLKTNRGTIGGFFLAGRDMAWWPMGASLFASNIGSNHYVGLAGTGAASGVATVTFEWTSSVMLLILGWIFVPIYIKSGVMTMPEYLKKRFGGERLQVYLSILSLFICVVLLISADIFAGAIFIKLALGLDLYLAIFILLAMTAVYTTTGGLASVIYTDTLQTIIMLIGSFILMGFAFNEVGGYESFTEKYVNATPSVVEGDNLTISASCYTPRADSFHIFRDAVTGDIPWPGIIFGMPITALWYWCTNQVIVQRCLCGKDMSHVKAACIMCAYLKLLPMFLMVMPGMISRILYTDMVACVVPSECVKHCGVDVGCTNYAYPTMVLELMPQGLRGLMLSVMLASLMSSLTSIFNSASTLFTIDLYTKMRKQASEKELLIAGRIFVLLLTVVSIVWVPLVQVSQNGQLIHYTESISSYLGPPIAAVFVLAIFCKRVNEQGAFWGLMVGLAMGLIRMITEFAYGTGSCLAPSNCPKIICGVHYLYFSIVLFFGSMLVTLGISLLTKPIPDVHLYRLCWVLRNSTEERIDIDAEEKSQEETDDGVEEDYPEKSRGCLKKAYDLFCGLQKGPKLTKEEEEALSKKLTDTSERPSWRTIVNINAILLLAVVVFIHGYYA
Procedure: (§1) Expression of hSGLT3 in oocytes. Stage VI oocytes from Xenopus laevis (Nasco, Fort Atkinson, Wis.) were defolliculated and injected with hSGLT3 cRNA and maintained at 18° C. in modified Barth's medium containing gentamycin (5 mg/ml) and penicillin (100 units/ml)/streptomycin (100 μg/ml). Each oocyte was injected with 20 ng of cRNA. Experiments were performed at 22±1° C., 3-9 days after the injection.
(§2) Two electrode-voltage clamp. Oocytes expressing SGLTs and control oocytes were placed in the chamber, impaled with the two electrodes and continuously superfused with the required medium (Loo et al. (1998) Proc. Natl. Acad. Sci. USA 95:7789-7794). Membrane potential changes and ionic currents were measured when adding different sugar concentrations. Sugar-specific changes in current were the difference between the values measured with sugar and the preceding value in buffer alone. Na^+ buffer contained 100 mM NaCl, 2 mM KCl, 1 mM CaCl2, 1 mM MgCl2 and 10 mM HEPES/tris (pH 7.5). In Na^+-free buffer, choline Cl replaced NaCl, and for the experiments at pH 5.0 HEPES/tris was replaced with MES/tris. In some experiments at low pH we simultaneously recorded the intracellular pH of the oocyte using the fluorescent dye BCECF-AM (15, 16). The apparent affinity (K0.5) and apparent maximal current (Imax) were calculated with the equation [1]=Imax. [S]/(K0.5+[S]), using the non-linear fitting method in SigmaPlot (SPSS, Chicago, Ill.) where [S] is the sugar concentration. The results are illustrated by experiments on single oocytes, but each was representative of at least 3-8 different oocytes.
(§3) Using the techniques described above, a two-electrode voltage-clamp was used to monitor hSGLT3's electrical properties in Xenopus oocytes. The oocytes were exposed to candidate compounds, and the depolarization of membrane potential was recorded.

control cells = assay: response of control cells to amino sugars; format: cell-based, Xenopus laevis; conditions: 30 mM
Procedure: as §2, with “The results are illustrated by experiments on single oocytes, but each was representative of at least 3-8 different oocytes.” left out
as §3

SGLT1 [2] = target: T2, SGLT1 (Homo sapiens, UniProt P13866); assay: response of cells expressing SGLT1 to amino sugars; format: cell-based; parameters: expressed in transfected cells; host or cells: cells expressing SGLT1; Xenopus oocytes are inferred from 'Using the techniques described above'; conditions: 30 mM
T2 sequence (P13866 1-664): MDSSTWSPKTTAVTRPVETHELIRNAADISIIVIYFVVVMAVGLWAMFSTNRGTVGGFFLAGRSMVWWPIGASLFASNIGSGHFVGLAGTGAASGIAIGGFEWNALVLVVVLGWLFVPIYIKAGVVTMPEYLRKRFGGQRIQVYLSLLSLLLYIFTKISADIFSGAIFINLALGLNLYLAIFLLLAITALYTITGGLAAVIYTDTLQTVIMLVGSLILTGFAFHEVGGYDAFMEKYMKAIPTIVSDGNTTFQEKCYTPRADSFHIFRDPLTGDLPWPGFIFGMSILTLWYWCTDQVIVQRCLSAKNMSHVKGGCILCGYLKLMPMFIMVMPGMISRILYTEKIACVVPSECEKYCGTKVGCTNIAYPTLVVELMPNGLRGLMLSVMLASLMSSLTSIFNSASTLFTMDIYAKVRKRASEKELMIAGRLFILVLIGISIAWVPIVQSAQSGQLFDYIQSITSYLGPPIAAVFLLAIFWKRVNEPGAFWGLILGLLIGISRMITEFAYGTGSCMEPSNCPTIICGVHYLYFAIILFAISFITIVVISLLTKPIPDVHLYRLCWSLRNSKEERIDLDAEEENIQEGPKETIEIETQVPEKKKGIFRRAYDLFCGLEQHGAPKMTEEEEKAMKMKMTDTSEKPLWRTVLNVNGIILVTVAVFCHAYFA
Procedure: as §2, with “The results are illustrated by experiments on single oocytes, but each was representative of at least 3-8 different oocytes.” left out
as §3

neuroendocrine cells = conditions: Na+-dependent and phlorizin-sensitive manner; cited from earlier work
hSGLT3 [3] = target: T1, hSGLT3; assay: sugar-induced currents in hSGLT3-expressing oocytes under voltage clamp; format: cell-based
Procedure: as §1, §2

guinea pig ileum = assay: mechanical activity of guinea pig ileum
[4] = system: glucose-responsive neurons in the hypothalamus; conditions: cited from earlier work
[5] = injected into the cerebrospinal fluid; cited from earlier work
pSGLT3 = target: T3, pSGLT3 (Sus scrofa, UniProt P31636); assay: ratio of positive ion uptake and sugar uptake in pSGLT3-expressing oocytes; format: cell-based, pig
T3 construct: expressed in transfected cells; host or cells: Xenopus laevis oocytes expressing pig SGLT3
T3 sequence (P31636 1-660): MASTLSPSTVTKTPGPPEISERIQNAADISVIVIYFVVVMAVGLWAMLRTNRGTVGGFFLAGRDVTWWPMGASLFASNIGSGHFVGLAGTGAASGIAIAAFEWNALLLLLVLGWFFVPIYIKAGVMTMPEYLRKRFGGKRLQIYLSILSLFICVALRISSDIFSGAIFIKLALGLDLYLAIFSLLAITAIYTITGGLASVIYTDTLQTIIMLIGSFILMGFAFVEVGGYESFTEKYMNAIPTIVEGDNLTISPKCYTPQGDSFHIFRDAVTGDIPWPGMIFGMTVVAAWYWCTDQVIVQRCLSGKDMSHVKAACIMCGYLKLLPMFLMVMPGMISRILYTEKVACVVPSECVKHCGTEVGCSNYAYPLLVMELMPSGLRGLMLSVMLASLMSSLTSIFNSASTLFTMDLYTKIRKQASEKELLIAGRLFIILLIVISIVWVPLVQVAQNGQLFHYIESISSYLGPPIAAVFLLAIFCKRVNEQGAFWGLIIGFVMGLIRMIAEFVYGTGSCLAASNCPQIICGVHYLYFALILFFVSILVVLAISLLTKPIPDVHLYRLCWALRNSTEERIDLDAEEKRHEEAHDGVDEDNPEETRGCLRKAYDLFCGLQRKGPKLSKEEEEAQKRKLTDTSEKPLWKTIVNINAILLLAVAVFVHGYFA
Procedure: (§4) Uptake experiments. Control oocytes or oocytes expressing a SGLT were superfused with a buffer solution containing either 100 mM NaCl or choline chloride at pH 7.5 or 5 while the plasma membrane potential was clamped at voltages between −50 and −110 mV. […] After the sugar was removed from the bathing solution the current returned to the baseline. The oocyte was washed, solubilized and glucose uptake determined using a scintillation spectrometer. Sugar-induced current was obtained by integrating the difference between baseline and the glucose-dependent current. The current, measured simultaneously with sugar uptake, was converted to its molar equivalent of univalent charge. [^14C]-glucose uptake in non-injected oocytes from the same batch of oocytes was used as a control.

SGLT1 [6] = target: T2, SGLT1; parameters: host or cells: Xenopus laevis oocytes expressing hSGLT1; conditions: cited from earlier work
hSGLT3 [7] = target: T1, hSGLT3; assay: simultaneous [14C]-glucose uptake and sugar-induced current in hSGLT3-expressing oocytes; format: cell-based
Procedure: as §1, §4

[8] = 2 mM glucose, -70 mV, Na+ buffer pH 5

effects on cells expressing SGLT1 (SGLT1 [2]): no effects
SMILES: CCN1C[C@H](O)[C@@H](O)[C@H](O)[C@H]1CO [N-(n-ethyl)deoxynojirimycin]
effects on control cells (control cells): no effects

maximum current at saturating sugar concentration (Imax) (hSGLT3 [3]; -150 mV, Na+ buffer, n=5): 122±20 nA | EC50 (hSGLT3 [3]; -150 mV, Na+ buffer, n=5, read-out: apparent sugar affinity (K0.5) of current): 36 ± 6 mM | Imax (hSGLT3 [3]; pH 5 in Choline Cl, four oocytes): 2385±651 nA | Imax (hSGLT3 [3]; pH 5 in NaCl, four oocytes): 1725±99 nA | EC50 (hSGLT3 [3]; pH 5 in NaCl, four oocytes, read-out: K0.5): 41 ± 7 mM | membrane depolarization (hSGLT3 [1]): about 4 mV
SMILES: CO[C@H]1O[C@H](CO)[C@@H](O)[C@H](O)[C@H]1O [αMDG, α-methyl-D-glucopyranoside]
GLP-1 peptide secretion (neuroendocrine cells): stimulates GLP-1 peptide secretion | effect on the membrane potential (qualitative) (hSGLT3 [1]): reversibly depolarized the membrane potential

block of the responses to the amino sugars (hSGLT3 [1]): blocked | inhibition of glucose-induced membrane depolarization (hSGLT3 [1]): blocked | inhibition of glucose-induced membrane depolarization (hSGLT3 [1]; listed as Phlorizin): inhibited the membrane depolarization
SMILES: O=C(CCc1ccc(O)cc1)c1c(O)cc(O)cc1O[C@@H]1O[C@H](CO)[C@@H](O)[C@H](O)[C@H]1O [phlorizin]
block of the effect of glucose on mechanical activity of guinea pig ileum (guinea pig ileum): blocked | glucose mediated increase in firing rate [4]: blocks | food intake [5]: increases food intake

effect on the membrane potential (hSGLT3 [1]): no effect
SMILES: OC[C@@H](O)[C@@H](O)[C@H](O)[C@H](O)CO [mannitol]

effects on cells expressing SGLT1 (SGLT1 [2]): no effects | EC50 (hSGLT3 [1]; range printed with mixed units (nanomolar to micromolar), read-out: affinities to activate SGLT2): 0.0005 to 0.002 mM
SMILES: OC[C@H]1NC[C@H](O)[C@@H](O)[C@@H]1O [Deoxynojirimycin]
effects on control cells (control cells): no effects

Continued, molecule first:

SMILES: O=C[C@H](O)[C@@H](O)[C@@H](O)[C@H](O)CO [D-galactose]
membrane depolarization (hSGLT3 [1]): no effect | effect on the membrane potential (hSGLT3 [1]): no effect

SMILES: O=C(CO)[C@@H](O)[C@H](O)[C@H](O)CO [D-fructose]
effect on the membrane potential (hSGLT3 [1]): no effect

SMILES: O=C[C@H](O)C[C@H](O)[C@H](O)CO [3-deoxy-D-glucose]
effect on the membrane potential (hSGLT3 [1]): failed to affect the membrane potential

SMILES: O=C[C@H](O)[C@@H](O)[C@H](O)[C@H](O)CO [D-glucose]
ratio positive charge / sugar uptake (pSGLT3; acidic pH, n=6): 4.7±0.2 | ratio positive charge / sugar uptake (pSGLT3; neutral pH, n=12): 2.1±0.1 | ratio positive ion uptake / sugar uptake (SGLT1 [6]; Na+ at neutral pH, n=4): 2.1±0.04 | ratio positive ion uptake / sugar uptake (SGLT1 [6]; acidic pH in H+, n=7): 2±0.1 | activation energy (Ea) of glucose-induced current (hSGLT3 [3]; pH 5, presence and absence of Na+, 10, 22 and 28° C., Arrhenius plots): ~9 kcal/mol | depolarization of the membrane potential by phlorizin sensitive inward current (hSGLT3 [1]): up to 50 mV | membrane depolarization (hSGLT3 [1]): about 4 mV | ΔVmax (hSGLT3 [1]; 6 experiments): 26±9 mV | EC50 (hSGLT3 [1]; K0.5 (apparent affinity) of depolarization, 6 experiments, pH 7.5): 60 mM and ~60 mM | effect on the membrane potential (qualitative) (hSGLT3 [1]): reversibly depolarized the membrane potential | maximal depolarization (ΔVm) (hSGLT3 [1]; fit of a single oocyte (FIG. 4B)): 23 mV | cation uptake in hSGLT3 oocytes (hSGLT3 [7]; 2 mM D-glucose, 5 minutes, Na+ pH 5, n=5): 81 ± 7 pmol | D-glucose uptake in hSGLT3 oocytes (hSGLT3 [7]; 2 mM D-glucose, 5 minutes, Na+ pH 5, n=5, control oocytes 11±0.6): 11 ± 0.5 pmol | glucose uptake in hSGLT3 oocytes compared with control oocytes (hSGLT3 [7]; [8]): identical to that in control oocytes | sugar dependent current equivalent to univalent positive charge (hSGLT3 [7]; [8]): 81±7 pmol per 5 minutes
